According to patent publication US5872122A, “Pyrimidinylamidino β-amino acid derivatives useful as inhibitors of platelet aggregation” (Monsanto Company, priority 1997, dated 1999):

System: platelet aggregation
Assay: In-Vitro Platelet Aggregation in PRP (ADP-induced)
Type: cell-based
Settings: Canis lupus familiaris; dog platelet-rich plasma; ADP 50 μM final; 1 min preincubation at 37° C.; read-out: IC50 (dosage at which 50% of platelet aggregation is inhibited)
Procedure: Healthy male or female dogs were fasted for 8 hours prior to drawing blood; then 30 mL whole blood was collected using a butterfly needle and 30 mL plastic syringe with 3 mL of 0.129M buffered sodium citrate (3.8%). The syringe was rotated carefully as blood was drawn to mix the citrate. Platelet-rich plasma (PRP) was prepared by centrifugation at 975×g for 3.17 minutes at room temperature allowing the centrifuge to coast to a stop without braking. The PRP was removed from the blood with a plastic pipette and placed in a plastic-capped 50 mL Corning conical sterile centrifuge tube which was held at room temperature. Platelet-poor plasma (PPP) was prepared by centrifuging the remaining blood at 2000×g for 15 minutes at room temperature allowing the centrifuge to coast to a stop without braking. The PRP was adjusted with PPP to a count of 2-3×10^8 platelets/mL. The PRP preparation (400 μL) and 50 μL of the compound solution to be tested or saline were preincubated for 1 minute at 37° C. in a BioData aggregometer (BioData, Horsham, Pa.). Adenosine-5'-diphosphate (ADP, 50 μL, 50 μM final concentration) was added to the cuvettes and the aggregation was monitored for 1 minute. All compounds are tested in duplicate. Results are calculated as follows: Percent of control=[(maximal OD minus initial OD of compound) divided by (maximal OD minus initial OD of control saline)]×100. The percent inhibition equals 100-(percent of control).
The compounds tested and their median inhibitory concentrations (IC50) are recorded in Table 1. The IC50 (dosage at which 50% of platelet aggregation is inhibited) were calculated by linear regression of the dose response curve.

| SMILES | IC50 [nM] |
| --- | --- |
| N=C(N)c1cnc(CCCCC(=O)N[C@@H](CC(=O)O)C(=O)N[C@@H](Cc2ccccc2)C(N)=O)nc1 (relative stereo) [Ex. 1, [S,(R*,R*)]-3-[[5-[5-(aminoiminomethyl)-2-pyrimidinyl]-1-oxopentyl]amino]-4-[[2-amino-2-oxo-1-(phenylmethyl)ethyl]amino]-4-oxobutanoic acid] | 590 |
| N=C(N)c1cnc(CCCCC(=O)N[C@@H](CC(=O)O)C(=O)N[C@@H](Cc2ccccc2)C(=O)O)nc1 [Ex. 2] | 110 |
| N=C(N)c1cnc(CCCCC(=O)NC(CC(=O)O)c2ccccc2)nc1 (stereo not drawn) [Ex. 3, β-[[5-[5-(aminoiminomethyl)-2-pyrimidinyl]-1-oxopentyl]amino]-phenylpropanoic acid] | 2200 |
| N=C(N)c1cnc(CCCCC(=O)NCCC(=O)O)nc1 [Ex. 4, N-[5-[5-(aminoiminomethyl)-2-pyrimidinyl]-1-oxopentyl]-β-alanine] | 50000 |
| N=C(N)c1cnc(CCCCC(=O)NC(CC(=O)O)c2cccnc2)nc1 (stereo not drawn) [Ex. 6, β-[[5-[5-(aminoiminomethyl)-2-pyrimidinyl]-1-oxopentyl]amino]-3-pyridinepropanoic acid] | 530 |
